{"source": "patent US20260055103A1", "about": "“2,3,4,9-TETRAHYDRO-1H-PYRIDO[3,4-B]INDOLE DERIVATIVES AS ESTROGEN RECEPTOR MODULATORS FOR THE TREATMENT OF CANCER” (Olema Pharmaceuticals, Inc., priority 2022, published 2026)", "target": "T1, estrogen receptor (Homo sapiens, UniProt P03372)", "T1 construct": "endogenous in cells; host or cells: ECC-1 cells", "T1 sequence (P03372 1-595)": "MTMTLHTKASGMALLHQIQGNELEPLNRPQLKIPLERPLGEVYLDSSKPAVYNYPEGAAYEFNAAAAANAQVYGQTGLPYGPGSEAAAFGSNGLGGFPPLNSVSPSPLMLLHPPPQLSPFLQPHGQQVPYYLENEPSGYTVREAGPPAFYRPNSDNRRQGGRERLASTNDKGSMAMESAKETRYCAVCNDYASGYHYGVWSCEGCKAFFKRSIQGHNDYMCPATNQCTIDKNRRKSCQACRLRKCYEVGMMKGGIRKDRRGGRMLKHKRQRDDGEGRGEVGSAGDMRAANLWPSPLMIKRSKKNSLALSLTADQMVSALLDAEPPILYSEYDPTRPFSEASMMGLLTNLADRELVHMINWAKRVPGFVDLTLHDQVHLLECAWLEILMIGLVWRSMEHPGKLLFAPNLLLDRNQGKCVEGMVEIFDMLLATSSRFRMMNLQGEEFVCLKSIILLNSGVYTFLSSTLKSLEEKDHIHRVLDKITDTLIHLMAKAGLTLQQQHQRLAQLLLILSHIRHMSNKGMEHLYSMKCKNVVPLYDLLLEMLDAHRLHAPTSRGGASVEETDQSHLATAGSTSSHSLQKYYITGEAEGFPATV", "assay": "Alkaline phosphatase (AP) assay in ECC-1 cells, agonist mode (no E2) and antagonist mode (500 pM E2)", "type": "cell-based", "conditions": "3 days, AP activity normalized to 500 pM E2 alone, agonist mode without E2, antagonist mode with 500 pM E2", "description": "ECC-1 cells were trypsinized and resuspended in hormone-depleted media and plated at a density of 15 k cells per well into a 96-well plate for at least 4 hours. Cells were treated with test compounds in the absence of E2 (for agonist mode) or in the presence of 500 pM E2 (for antagonist mode) for 3 days and plates were subsequently frozen at −80° C. Thawed plates were incubated with a chromogenic substrate of AP, p-nitrophenyl phosphate (Thermo Fisher Scientific), for 40 minutes at 42° C., and absorbances were read at 405 nm. AP activity was normalized to the activity of 500 pM E2 alone.\nThe compound numbers correspond to the compound numbers of Table 1 and 2. Compounds having an activity designated as “+” provided estrogen receptor agonism having (i) at least 80% increase in the E2-normalized signal in the AP assay (agonist mode) and (ii) no more than 80% reduction in the E2-normalized signal in the AP assay (antagonist mode). Compounds having an activity designated as “++” provided estrogen receptor antagonism having (i) between 10% and 80% increase in the E2-normalized signal in the AP assay (agonist mode) and (ii) between 10% and 80% reduction in the E2-normalized signal in the AP assay (antagonist mode).", "data": [{"smiles": "C[C@@H]1Cc2c([nH]c3ccccc23)[C@@H](c2sc(CC3CN(CCCF)C3)cc2F)N1CC(F)(F)CO", "note": "[Example I-55, 2,2-difluoro-3-[(1S,3R)-1-[3-fluoro-5-[[1-(3-fluoropropyl)azetidin-3-yl]methyl]-2-thienyl]-3-methyl-1,3,4,9-tetrahydropyrido[3,4-b]indol-2-yl]propan-1-ol]", "values": [{"measurement": "Activity (estrogen receptor modulation, agonism and antagonism)", "result": "+++ (estrogen receptor antagonism (i) with pIC50 greater than 7.5 and at least a 10% reduction in the E2-normalized signal in the AP assay (antagonist mode); and no more than 10% increase in E2-normalized signal in the AP assay (agonist mode))"}]}, {"smiles": "C[C@@H]1Cc2c([nH]c3ccccc23)[C@@H](c2ccc(CC3CN(CCC4COC4)C3)s2)N1CC(F)(F)CO", "note": "[Example I-59, 2,2-difluoro-3-((1S,3R)-3-methyl-1-(5-((1-(2-(oxetan-3-yl)ethyl)azetidin-3-yl)methyl)thiophen-2-yl)-1,3,4,9-tetrahydro-2H-pyrido[3,4-b]indol-2-yl)propan-1-ol]", "values": [{"measurement": "Activity (estrogen receptor modulation, agonism and antagonism)", "result": "+ (estrogen receptor agonism having (i) at least 80% increase in the E2-normalized signal in the AP assay (agonist mode) and (ii) no more than 80% reduction in the E2-normalized signal in the AP assay (antagonist mode))"}]}, {"smiles": "C[C@@H]1Cc2c([nH]c3ccccc23)[C@@H](c2ncc(CC3CN(CCCF)C3)s2)N1CC(F)F", "note": "[Example I-31]", "values": [{"measurement": "Activity (estrogen receptor modulation, agonism and antagonism)", "result": "++ (estrogen receptor antagonism having (i) between 10% and 80% increase in the E2-normalized signal in the AP assay (agonist mode) and (ii) between 10% and 80% reduction in the E2-normalized signal in the AP assay (antagonist mode))"}]}, {"smiles": "CCCN1CCC(c2ccc([C@@H]3c4[nH]c5ccccc5c4C[C@@H](C)N3CC(C)(C)F)s2)CC1", "note": "[Example I-70, (1S,3R)-2-(2-fluoro-2-methyl-propyl)-3-methyl-1-[5-(1-propyl-4-piperidyl)-2-thienyl]-1,3,4,9-tetrahydropyrido[3,4-b]indole]", "values": [{"measurement": "Activity (estrogen receptor modulation, agonism and antagonism)", "result": "+ (estrogen receptor agonism having (i) at least 80% increase in the E2-normalized signal in the AP assay (agonist mode) and (ii) no more than 80% reduction in the E2-normalized signal in the AP assay (antagonist mode))"}]}, {"smiles": "C[C@@H]1Cc2c([nH]c3ccccc23)[C@@H](c2ccc(CC3CN(CCC#N)C3)s2)N1CC(C)(C)F", "note": "[Example I-56, 3-[3-[[5-[(1S,3R)-2-(2-fluoro-2-methyl-propyl)-3-methyl-1,3,4,9-tetrahydropyrido[3,4-b]indol-1-yl]-2-thienyl]methyl]azetidin-1-yl]propanenitrile]", "values": [{"measurement": "Activity (estrogen receptor modulation, agonism and antagonism)", "result": "++ (estrogen receptor antagonism having (i) between 10% and 80% increase in the E2-normalized signal in the AP assay (agonist mode) and (ii) between 10% and 80% reduction in the E2-normalized signal in the AP assay (antagonist mode))"}]}, {"smiles": "C[C@@H]1CCN(CCCc2ccc([C@@H]3c4[nH]c5ccccc5c4C[C@@H](C)N3CC(C)(C)F)s2)C1", "note": "[Example I-26, (3R)-1-(3-{5-[(1S,3R)-2-(2-fluoro-2-methylpropyl)-3-methyl-1H,2H,3H,4H,9H-pyrido[3,4-b]indol-1-yl]thiophen-2-yl}propyl)-3-methylpyrrolidine]", "values": [{"measurement": "Activity (estrogen receptor modulation, agonism and antagonism)", "result": "++ (estrogen receptor antagonism having (i) between 10% and 80% increase in the E2-normalized signal in the AP assay (agonist mode) and (ii) between 10% and 80% reduction in the E2-normalized signal in the AP assay (antagonist mode))"}]}, {"smiles": "CCCN1CC[C@@H](Cc2ncc([C@@H]3c4[nH]c5ccccc5c4C[C@@H](C)N3CC(F)(F)F)s2)C1", "note": "[Example I-49, 5-[(1S,3R)-3-methyl-2-(2,2,2-trifluoroethyl)-1,3,4,9-tetrahydropyrido[3,4-b]indol-1-yl]-2-[[(3S)-1-propylpyrrolidin-3-yl]methyl]thiazole]", "values": [{"measurement": "Activity (estrogen receptor modulation, agonism and antagonism)", "result": "+ (estrogen receptor agonism having (i) at least 80% increase in the E2-normalized signal in the AP assay (agonist mode) and (ii) no more than 80% reduction in the E2-normalized signal in the AP assay (antagonist mode))"}]}, {"smiles": "C[C@@H]1Cc2c([nH]c3ccccc23)[C@@H](c2ncc(CC3CN(CCCF)C3)s2)N1CC(C)(C)F", "note": "[Example I-4, 2-[(1S,3R)-2-(2-fluoro-2-methylpropyl)-3-methyl-1H,2H,3H,4H,9H-pyrido[3,4-b]indol-1-yl]-5-{[1-(3-fluoropropyl)azetidin-3-yl]methyl}-1,3-thiazole]", "values": [{"measurement": "Activity (estrogen receptor modulation, agonism and antagonism)", "result": "+ (estrogen receptor agonism having (i) at least 80% increase in the E2-normalized signal in the AP assay (agonist mode) and (ii) no more than 80% reduction in the E2-normalized signal in the AP assay (antagonist mode))"}]}, {"smiles": "C[C@@H]1Cc2c([nH]c3ccccc23)[C@@H](c2cnc(N[C@H]3CCN(CCCF)C3)s2)N1CC(F)(F)CO", "note": "[Example I-73, 2,2-difluoro-3-[(1S,3R)-1-[2-[[(3S)-1-(3-fluoropropyl)pyrrolidin-3-yl]amino]thiazol-5-yl]-3-methyl-1,3,4,9-tetrahydropyrido[3,4-b]indol-2-yl]propan-1-ol]", "values": [{"measurement": "Activity (estrogen receptor modulation, agonism and antagonism)", "result": "++ (estrogen receptor antagonism having (i) between 10% and 80% increase in the E2-normalized signal in the AP assay (agonist mode) and (ii) between 10% and 80% reduction in the E2-normalized signal in the AP assay (antagonist mode))"}]}, {"smiles": "C[C@@H]1Cc2c([nH]c3ccccc23)[C@@H](c2cnc(CC3CN(CCCF)C3)s2)N1CC(F)(F)F", "note": "[Example I-38, 2-[[1-(3-fluoropropyl)azetidin-3-yl]methyl]-5-[(1S,3R)-3-methyl-2-(2,2,2-trifluoroethyl)-1,3,4,9-tetrahydropyrido[3,4-b]indol-1-yl]thiazole]", "values": [{"measurement": "Activity (estrogen receptor modulation, agonism and antagonism)", "result": "++ (estrogen receptor antagonism having (i) between 10% and 80% increase in the E2-normalized signal in the AP assay (agonist mode) and (ii) between 10% and 80% reduction in the E2-normalized signal in the AP assay (antagonist mode))"}]}, {"smiles": "C[C@@H]1Cc2c([nH]c3ccccc23)[C@@H](c2ccc(C3CCN(CCCF)CC3)s2)N1CC(C)(C)F", "note": "[Example I-71, (1S,3R)-2-(2-fluoro-2-methyl-propyl)-1-[5-[1-(3-fluoropropyl)-4-piperidyl]-2-thienyl]-3-methyl-1,3,4,9-tetrahydropyrido[3,4-b]indole]", "values": [{"measurement": "Activity (estrogen receptor modulation, agonism and antagonism)", "result": "+ (estrogen receptor agonism having (i) at least 80% increase in the E2-normalized signal in the AP assay (agonist mode) and (ii) no more than 80% reduction in the E2-normalized signal in the AP assay (antagonist mode))"}]}, {"smiles": "C[C@@H]1Cc2c([nH]c3ccccc23)[C@@H](c2ccc(CCCN3CC[C@@H](CF)C3)s2)N1CC(C)(C)F", "note": "[Example I-25, (1S,3R)-2-(2-fluoro-2-methylpropyl)-1-(5-(3-((R)-3-(fluoromethyl)pyrrolidin-1-yl)propyl)thiophen-2-yl)-3-methyl-2,3,4,9-tetrahydro-1H-pyrido[3,4-b]indole]", "values": [{"measurement": "Activity (estrogen receptor modulation, agonism and antagonism)", "result": "++ (estrogen receptor antagonism having (i) between 10% and 80% increase in the E2-normalized signal in the AP assay (agonist mode) and (ii) between 10% and 80% reduction in the E2-normalized signal in the AP assay (antagonist mode))"}]}, {"smiles": "C[C@@H]1Cc2c([nH]c3ccccc23)[C@@H](c2ccc(CC3CN(CCCF)C3)s2)N1CC(F)(F)F", "note": "[Example I-20, 1-(3-fluoropropyl)-3-({5-[(1S,3R)-3-methyl-2-(2,2,2-trifluoroethyl)-1H,2H,3H,4H,9H-pyrido[3,4-b]indol-1-yl]thiophen-2-yl}methyl)azetidine]", "values": [{"measurement": "Activity (estrogen receptor modulation, agonism and antagonism)", "result": "++ (estrogen receptor antagonism having (i) between 10% and 80% increase in the E2-normalized signal in the AP assay (agonist mode) and (ii) between 10% and 80% reduction in the E2-normalized signal in the AP assay (antagonist mode))"}]}, {"smiles": "C[C@@H]1Cc2c([nH]c3ccccc23)[C@@H](c2cnc(NC3CN(CCCF)C3)s2)N1CC(F)(F)CO", "note": "[Example I-63, 2,2-difluoro-3-[(1S,3R)-1-[2-[[1-(3-fluoropropyl)azetidin-3-yl]amino]thiazol-5-yl]-3-methyl-1,3,4,9-tetrahydropyrido[3,4-b]indol-2-yl]propan-1-ol]", "values": [{"measurement": "Activity (estrogen receptor modulation, agonism and antagonism)", "result": "++ (estrogen receptor antagonism having (i) between 10% and 80% increase in the E2-normalized signal in the AP assay (agonist mode) and (ii) between 10% and 80% reduction in the E2-normalized signal in the AP assay (antagonist mode))"}]}, {"smiles": "C[C@@H]1Cc2c([nH]c3ccccc23)[C@@H](c2cnc(C[C@H]3CCN(CCCF)C3)s2)N1CC(F)F", "note": "[Example I-30, 5-((1S,3R)-2-(2,2-difluoroethyl)-3-methyl-2,3,4,9-tetrahydro-1H-pyrido[3,4-b]indol-1-yl)-2-(((R)-1-(3-fluoropropyl)pyrrolidin-3-yl)methyl)thiazole]", "values": [{"measurement": "Activity (estrogen receptor modulation, agonism and antagonism)", "result": "++ (estrogen receptor antagonism having (i) between 10% and 80% increase in the E2-normalized signal in the AP assay (agonist mode) and (ii) between 10% and 80% reduction in the E2-normalized signal in the AP assay (antagonist mode))"}]}]}
